Measured values as given in paper PMC12446476 (Nature Communications, 2025).

Tested on: Caco-2 cell monolayers
Experimental: Various controls were assessed in parallel, including atenolol (low permeability) and diclofenac (high permeability).
The instrument operated in positive ionisation mode (ESI + ) over a m/z range of 80–1000 (n = 1 measure per sample). Data were extracted from chromatograms using calculated monoisotopic accurate masses for protonated molecular ions within 5 ppm windows.

SMILES: Cc1c(CN(C)C(=O)/C=C/c2cnc3c(c2)N[C@H](C)[C@H](OP(=O)([O-])[O-])C(=O)N3)oc2ccccc12.[Na+].[Na+] [Debio 1453 P]
- Apparent permeability (Papp): negligible
- permeability through transwells A → B: 31.8 ×10⁻⁶ cm/s
